According to paper PMC9225715, “Development of PD3 and PD3-B for PDEδ inhibition to modulate KRAS activity” (Journal of Enzyme Inhibition and Medicinal Chemistry, 2022):

Target: T1, PDEδ (Homo sapiens, UniProt O43924)
T1 construct: made in house; host or cells: E. coli BL21(DE3)
Test: Affinity pull-down experiment with bacterial lysate overexpressing PDEδ
Type: binding
Conditions: 100 µM PD3-B on NeutrAvidin resin, bacterial lysate 150 µg, DMSO control
Procedure: We subsequently investigated whether PD3-B (5) specifically identifies PDEδ in the complex proteome of bacterial lysate using an affinity pull-down experiment (Figure 5). 100 µM PD3-B (5) was initially incubated with NeutrAvidin resin before incubation with bacterial lysate (150 µg) overexpressing PDEδ. For elution of the bound proteins, an elution buffer (2% SDS in PBS) was added to the resin and gently eluted at room temperature due to the noncovalent interaction between PD3-B (5) and the target protein PDEδ. The eluted samples were subjected to SDS–PAGE (18% polyacrylamide gel), and then the gels were stained with colloidal Coomassie brilliant blue solution to visualise the bound proteins. DMSO was used as a negative control. […] In addition, the intensity of the PDEδ band increased depending on the concentration of PD3-B (5) (Figure 5(B)).
Figure 5. Affinity pull-down assay of bacterial lysate (PDEδ overexpressed) with PD3-B. NeutrAvidin resin was incubated with PD3-B (100 μM) followed by bacterial lysate (150 μg) in PBS buffer. Then, bound proteins were eluted by adding elution buffer (2% SDS in PBS) at room temperature. The eluted samples were subjected to SDS–PAGE (18% polyacrylamide gel). The gels were stained with colloidal Coomassie brilliant blue solution. (A) Colloidal CBB staining of SDS–PAGE gel. Lys: bacterial lysate, FT: flow through in step 1. […]

T1 sequence (O43924 whole entry): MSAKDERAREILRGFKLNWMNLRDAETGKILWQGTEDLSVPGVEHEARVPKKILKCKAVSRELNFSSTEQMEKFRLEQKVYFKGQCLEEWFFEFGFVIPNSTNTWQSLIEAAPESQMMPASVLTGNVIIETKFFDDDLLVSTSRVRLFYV

`Cc1ccc(-c2nc3ccccc3c3c(-c4cn(CCOCCOCCOCCNC(=O)CCCC[C@H]5SC[C@@H]6NC(=O)N[C@@H]65)nn4)c4ccccn4c23)cc1` [PD3-B, 5-((3aS,4R,6aR)-2-oxohexahydro-1H-thieno[3,4-d]imidazol-4-yl)-N-(2–(2–(2-(2-(4–(6-(p-tolyl)indolizino[3,2-c]quinolin-12-yl)-1H-1,2,3-triazol-1-yl)ethoxy)ethoxy)ethoxy)ethyl)pentanamide] was tested. Which “Pull down of PDEδ” value did it give?
Its value is “PDEδ (20 kDa) was only detected in PD3-B (5)”.
